Experimental findings from patent publication US10053417B2, “Neprilysin inhibitors” (THERAVANCE BIOPHARMA R&D IP, LLC, priority 2013, dated 2018) are described below.

The structures appear in SMILES notation. Some results are limits rather than exact numbers.

T1 sequence (P08473 52-750 limits assumed): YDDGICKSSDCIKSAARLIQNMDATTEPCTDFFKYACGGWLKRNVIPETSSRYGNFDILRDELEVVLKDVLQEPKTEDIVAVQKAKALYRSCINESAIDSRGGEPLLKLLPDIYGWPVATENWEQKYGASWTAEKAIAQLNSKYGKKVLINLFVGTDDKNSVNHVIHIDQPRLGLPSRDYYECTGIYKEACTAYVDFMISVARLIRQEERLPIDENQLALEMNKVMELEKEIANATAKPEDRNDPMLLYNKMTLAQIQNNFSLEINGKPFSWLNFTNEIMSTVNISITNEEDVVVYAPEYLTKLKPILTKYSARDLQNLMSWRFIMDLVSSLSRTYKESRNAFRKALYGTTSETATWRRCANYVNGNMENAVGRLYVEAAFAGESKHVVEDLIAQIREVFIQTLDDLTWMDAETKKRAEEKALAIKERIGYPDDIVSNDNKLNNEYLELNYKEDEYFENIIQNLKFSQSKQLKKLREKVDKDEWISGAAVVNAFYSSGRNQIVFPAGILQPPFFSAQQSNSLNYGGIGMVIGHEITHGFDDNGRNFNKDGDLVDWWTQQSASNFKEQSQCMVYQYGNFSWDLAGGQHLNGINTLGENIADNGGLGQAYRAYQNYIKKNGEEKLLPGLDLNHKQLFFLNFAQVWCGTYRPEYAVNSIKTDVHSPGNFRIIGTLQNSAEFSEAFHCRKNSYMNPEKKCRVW

This assay has as its target T1, human NEP (Homo sapiens, UniProt P08473).
T1 construct: purchased R&D Systems, Minneapolis, Minn; 1182-ZN
In words: In vitro enzyme inhibition assay, inhibitor potency at human NEP (Assay 1). It counts as biochemical. Particulars: recombinant human NEP; fluorogenic peptide substrate 10 μM; 37° C.; values given as ranges. In short, it runs like this: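 Recombinant human NEP pre-incubated 30 min at 37 °C with compound ([…]), then 10 μM Mca-D-Arg-Arg-Leu-Dap-(Dnp)-OH added in 50 mM HEPES pH 7.5, 100 mM NaCl, 0.01% Tween-20, 10 μM ZnSO4; stopped after 20 min with acetic acid. Fluorescence ex 320/em 405 nm; Ki from nonlinear regression, reported as pKi.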
The Ki is the dissociation constant of the complex between target and ligand, obtained from inhibition or displacement. For the compound `C[C@H]1COC[C@H](C)N1C(=O)C(=O)N[C@H](Cc1ccc(-c2cccc(Cl)c2)cc1)C[C@@H](O)C(=O)O` [Example 4-47, (2R,4R)-5-(3′-Chlorobiphenyl-4-yl)-4-[2-((3S,5S)-3,5-dimethylmorpholin-4-yl)-2-oxo-acetylamino]-2-hydroxypentanoic acid], the Ki was 1 to 10 nM.
In the case of `O=C(N[C@H](Cc1ccc(-c2cccc(Cl)c2)cc1)C[C@@H](O)C(=O)O)C(=O)N1CCCO1` [Example 4-48, (2R,4R)-5-(3′-Chlorobiphenyl-4-yl)-2-hydroxy-4-(2-isoxazolidin-2-yl-2-oxo-acetylamino)pentanoic acid], the Ki is 1 to 10 nM.
For `O=C(N[C@H](Cc1ccc(-c2cccc(Cl)c2)cc1)C[C@@H](O)C(=O)O)C(=O)N1CC(O)CO1` (stereo partly drawn) [Example 4-49, (2R,4R)-5-(3′-Chlorobiphenyl-4-yl)-2-hydroxy-4-[2-(4-hydroxyisoxazolidin-2-yl)-2-oxo-acetylamino]pentanoic acid] the value was 1 to 10 nM; for `O=C(N[C@H](Cc1ccc(-c2cccc(Cl)c2)cc1)C[C@@H](O)C(=O)O)C(=O)N1CC2(COC2)C1` [Example 4-50, (2R,4R)-5-(3′-Chlorobiphenyl-4-yl)-2-hydroxy-4-[2-(2-oxa-6-aza-spiro[3.3]hept-6-yl)-2-oxo-acetylamino]pentanoic acid], 10 to 31.6 nM.
For `O=C(NNc1ccc([N+](=O)[O-])cc1[N+](=O)[O-])C(=O)N[C@H](Cc1ccc(-c2cccc(Cl)c2)cc1)C[C@@H](O)C(=O)O` [Example 5, (2R,4R)-5-(3′-Chlorobiphenyl-4-yl)-4-{[N′-(2,4-dinitrophenyl)-hydrazinooxalyl]-amino}-2-hydroxypentanoic Acid] the value was no more than 1 nM; for `CNNC(=O)C(=O)N[C@H](Cc1ccc(-c2cccc(Cl)c2)cc1)C[C@@H](O)C(=O)O` [Example 6-1, (2R,4R)-5-(3′-Chlorobiphenyl-4-yl)-2-hydroxy-4-[(N′-methylhydrazinooxalyl)-amino]pentanoic acid], 10 to 31.6 nM; for `CC(C)CNNC(=O)C(=O)N[C@H](Cc1ccc(-c2cccc(Cl)c2)cc1)C[C@@H](O)C(=O)O` [Example 6-2, (2R,4R)-5-(3′-Chlorobiphenyl-4-yl)-2-hydroxy-4-[(N′-isobutylhydrazinooxalyl)-amino]pentanoic acid], 10 to 31.6 nM.
As for `O=C(NNc1ccncc1)C(=O)N[C@H](Cc1ccc(-c2cccc(Cl)c2)cc1)C[C@@H](O)C(=O)O` [Example 6-3, (2R,4R)-5-(3′-Chlorobiphenyl-4-yl)-2-hydroxy-4-[(N′-pyridin-4-yl-hydrazino-oxalyl)-amino]pentanoic acid], the inhibition constant Ki was 1 to 10 nM.
With `O=C(NNc1cccnc1)C(=O)N[C@H](Cc1ccc(-c2cccc(Cl)c2)cc1)C[C@@H](O)C(=O)O` [Example 6-4, (2R,4R)-5-(3′-Chlorobiphenyl-4-yl)-2-hydroxy-4-[(N′-pyridin-3-yl-hydrazino-oxalyl)-amino]pentanoic acid], the Ki is 1 to 10 nM.
As for `O=C(NNc1cc(O)ncn1)C(=O)N[C@H](Cc1ccc(-c2cccc(Cl)c2)cc1)C[C@@H](O)C(=O)O` [Example 6-5, (2R,4R)-5-(3′-Chlorobiphenyl-4-yl)-2-hydroxy-4-{[N′-(6-hydroxy-pyrimidin-4-yl)-hydrazinooxalyl]amino}-pentanoic acid], the Ki was 1 to 10 nM.
For `O=C(NNC1=NCCN1)C(=O)N[C@H](Cc1ccc(-c2cccc(Cl)c2)cc1)C[C@@H](O)C(=O)O` [Example 6-6, (2R,4R)-5-(3′-Chlorobiphenyl-4-yl)-4-{[N′-(4,5-dihydro-1H-imidazol-2-yl)-hydrazinooxalyl]-amino}-2-hydroxypentanoic acid], the Ki was 10 to 31.6 nM.
For `O=C(NNc1ccccc1Cl)C(=O)N[C@H](Cc1ccc(-c2cccc(Cl)c2)cc1)C[C@@H](O)C(=O)O` [Example 6-7, (2R,4R)-5-(3′-Chlorobiphenyl-4-yl)-4-{[N′-(2-chloro-phenyl)-hydrazinooxalyl]-amino}-2-hydroxypentanoic acid] the value was 1 to 10 nM.
For `O=C(NNc1ccccc1F)C(=O)N[C@H](Cc1ccc(-c2cccc(Cl)c2)cc1)C[C@@H](O)C(=O)O` [Example 6-8, (2R,4R)-5-(3′-Chlorobiphenyl-4-yl)-4-{[N′-(2-fluoro-phenyl)-hydrazinooxalyl]-amino}-2-hydroxypentanoic acid] the value was 1 to 10 nM; for `O=C(NNc1cccc(Cl)c1)C(=O)N[C@H](Cc1ccc(-c2cccc(Cl)c2)cc1)C[C@@H](O)C(=O)O` [Example 6-9, (2R,4R)-5-(3′-Chlorobiphenyl-4-yl)-4-{[N′-(3-chloro-phenyl)-hydrazinooxalyl]-amino}-2-hydroxypentanoic acid], 1 to 10 nM; for `Cc1ccccc1NNC(=O)C(=O)N[C@H](Cc1ccc(-c2cccc(Cl)c2)cc1)C[C@@H](O)C(=O)O` [Example 6-10, (2R,4R)-5-(3′-Chlorobiphenyl-4-yl)-2-hydroxy-4-[(N′-o-tolyl-hydrazinooxalyl)-amino]-pentanoic acid], 1 to 10 nM.
For `Cc1ccc(NNC(=O)C(=O)N[C@H](Cc2ccc(-c3cccc(Cl)c3)cc2)C[C@@H](O)C(=O)O)cc1` [Example 6-11, (2R,4R)-5-(3′-Chlorobiphenyl-4-yl)-2-hydroxy-4-[(N′-p-tolyl-hydrazinooxalyl)-amino]-pentanoic acid] the value was 1 to 10 nM; for `O=C(NNc1ccc(F)cc1)C(=O)N[C@H](Cc1ccc(-c2cccc(Cl)c2)cc1)C[C@@H](O)C(=O)O` [Example 6-12, (2R,4R)-5-(3′-Chlorobiphenyl-4-yl)-4-{[N′-(4-fluoro-phenyl)-hydrazinooxalyl]-amino}-2-hydroxypentanoic acid], 1 to 10 nM.
In the case of `O=C(NNc1ccc(Cl)cc1)C(=O)N[C@H](Cc1ccc(-c2cccc(Cl)c2)cc1)C[C@@H](O)C(=O)O` [Example 6-13, (2R,4R)-5-(3′-Chlorobiphenyl-4-yl)-4-{[N′-(4-chloro-phenyl)-hydrazinooxalyl]-amino}-2-hydroxypentanoic acid], the Ki is 1 to 10 nM.
As for `O=C(NNc1ccc(Br)cc1)C(=O)N[C@H](Cc1ccc(-c2cccc(Cl)c2)cc1)C[C@@H](O)C(=O)O` [Example 6-14, (2R,4R)-4-{[N′-(4-Bromophenyl)-hydrazinooxalyl]-amino}-5-(3′-chlorobiphenyl-4-yl)-2-hydroxypentanoic acid], the inhibition constant Ki is 1 to 10 nM.
As for `COc1ccc(NNC(=O)C(=O)N[C@H](Cc2ccc(-c3cccc(Cl)c3)cc2)C[C@@H](O)C(=O)O)cc1` [Example 6-15, (2R,4R)-5-(3′-Chlorobiphenyl-4-yl)-2-hydroxy-4-{[N′-(4-methoxyphenyl)-hydrazinooxalyl]amino}pentanoic acid], the Ki is 1 to 10 nM.
For the compound `Cc1cccc(NNC(=O)C(=O)N[C@H](Cc2ccc(-c3cccc(Cl)c3)cc2)C[C@@H](O)C(=O)O)c1` [Example 6-16, (2R,4R)-5-(3′-Chlorobiphenyl-4-yl)-2-hydroxy-4-[(N′-m-tolylhydrazinooxalyl)-amino]pentanoic acid], the Ki was 1 to 10 nM.
For `O=C(NNc1ccccc1)C(=O)N[C@H](Cc1ccc(-c2cccc(Cl)c2)cc1)C[C@@H](O)C(=O)O` [Example 6-17, (2R,4R)-5-(3′-Chlorobiphenyl-4-yl)-2-hydroxy-4-[(N′-phenylhydrazinooxalyl)-amino]pentanoic acid], the Ki was 1 to 10 nM.
In the case of `O=C(NNC(=O)c1ccccc1O)C(=O)N[C@H](Cc1ccc(-c2cccc(Cl)c2)cc1)C[C@@H](O)C(=O)O` [Example 7, (2R,4R)-5-(3′-Chlorobiphenyl-4-yl)-2-hydroxy-4-{2-[N′-(2-hydroxybenzoyl)hydrazino]-2-oxo-acetylamino}pentanoic Acid], the Ki is no more than 1 nM.
For `O=C(NNC(=O)C(=O)N[C@H](Cc1ccc(-c2cccc(Cl)c2)cc1)C[C@@H](O)C(=O)O)OCc1ccccc1` [Example 8-1, (2R,4R)-4-[2-(N′-Benzyloxycarbonyl-hydrazino)-2-oxo-acetylamino]-5-(3′-chloro-biphenyl-4-yl)-2-hydroxypentanoic acid] the value was 10 to 31.6 nM.
For `O=C(NNC(=O)c1ccc(Cl)nc1)C(=O)N[C@H](Cc1ccc(-c2cccc(Cl)c2)cc1)C[C@@H](O)C(=O)O` [Example 8-2, (2R,4R)-5-(3′-Chlorobiphenyl-4-yl)-4-{2-[N′-(6-chloro-pyridine-3-carbonyl)-hydrazino]-2-oxo-acetylamino}-2-hydroxypentanoic acid] the value was 1 to 10 nM; for `O=C(NNC(=O)c1cccnc1)C(=O)N[C@H](Cc1ccc(-c2cccc(Cl)c2)cc1)C[C@@H](O)C(=O)O` [Example 8-3, (2R,4R)-5-(3′-Chlorobiphenyl-4-yl)-2-hydroxy-4-{2-oxo-2-[N′-(pyridine-3-carbonyl)-hydrazino]acetylamino}pentanoic acid], 1 to 10 nM; for `O=C(NNC(=O)c1ccncc1)C(=O)N[C@H](Cc1ccc(-c2cccc(Cl)c2)cc1)C[C@@H](O)C(=O)O` [Example 8-4, (2R,4R)-5-(3′-Chlorobiphenyl-4-yl)-2-hydroxy-4-{2-oxo-2-[N′-(pyridine-4-carbonyl)-hydrazino]acetylamino}pentanoic acid], 1 to 10 nM.
For `O=C(NNC(=O)c1ccco1)C(=O)N[C@H](Cc1ccc(-c2cccc(Cl)c2)cc1)C[C@@H](O)C(=O)O` [Example 8-5, (2R,4R)-5-(3′-Chlorobiphenyl-4-yl)-4-{2-[N′-(furan-2-carbonyl)-hydrazino]-2-oxo-acetylamino}-2-hydroxypentanoic acid] the value was 1 to 10 nM.
Consider `O=C(NNC(=O)c1ccccc1[N+](=O)[O-])C(=O)N[C@H](Cc1ccc(-c2cccc(Cl)c2)cc1)C[C@@H](O)C(=O)O` [Example 8-6, (2R,4R)-5-(3′-Chlorobiphenyl-4-yl)-2-hydroxy-4-{2-[N′-(2-nitro-benzoyl)-hydrazino]-2-oxo-acetylamino}pentanoic acid], for which the Ki was 1 to 10 nM.
